The results in this text go back to US10738026B2, “Isoquinoline derivatives and use thereof” (Purdue Pharma L.P., priority 2014, dated 2020).

Assay [1] concerns the target human Nav1.7 (Homo sapiens (Human), UniProt Q15858). As to the kind of experiment: FLIPR or FLIPR TETRA sodium dye assay with KCl and test article pre-incubation (sodium mobilization). In kind it is cell-based. Conditions: recombinant human Nav1.7 in HEK293; veratridine and scorpion venom as agonists.
Assay [2] has as its target hNav1.7 (Homo sapiens (Human), UniProt Q15858). The assay can be described thus: Electrophysiology (EP) assay, whole-cell patch clamp in hNav1.7 expressing HEK-293 cells. Format: cell-based. Particulars: hNav1.7 HEK-293 cells; affinity for the inactivated state of the channel; read-out: Nav1.7 Activity (μM) EP assay Ki.

Chain of human Nav1.7 (Q15858 with tags, fused parts or gaps limits assumed): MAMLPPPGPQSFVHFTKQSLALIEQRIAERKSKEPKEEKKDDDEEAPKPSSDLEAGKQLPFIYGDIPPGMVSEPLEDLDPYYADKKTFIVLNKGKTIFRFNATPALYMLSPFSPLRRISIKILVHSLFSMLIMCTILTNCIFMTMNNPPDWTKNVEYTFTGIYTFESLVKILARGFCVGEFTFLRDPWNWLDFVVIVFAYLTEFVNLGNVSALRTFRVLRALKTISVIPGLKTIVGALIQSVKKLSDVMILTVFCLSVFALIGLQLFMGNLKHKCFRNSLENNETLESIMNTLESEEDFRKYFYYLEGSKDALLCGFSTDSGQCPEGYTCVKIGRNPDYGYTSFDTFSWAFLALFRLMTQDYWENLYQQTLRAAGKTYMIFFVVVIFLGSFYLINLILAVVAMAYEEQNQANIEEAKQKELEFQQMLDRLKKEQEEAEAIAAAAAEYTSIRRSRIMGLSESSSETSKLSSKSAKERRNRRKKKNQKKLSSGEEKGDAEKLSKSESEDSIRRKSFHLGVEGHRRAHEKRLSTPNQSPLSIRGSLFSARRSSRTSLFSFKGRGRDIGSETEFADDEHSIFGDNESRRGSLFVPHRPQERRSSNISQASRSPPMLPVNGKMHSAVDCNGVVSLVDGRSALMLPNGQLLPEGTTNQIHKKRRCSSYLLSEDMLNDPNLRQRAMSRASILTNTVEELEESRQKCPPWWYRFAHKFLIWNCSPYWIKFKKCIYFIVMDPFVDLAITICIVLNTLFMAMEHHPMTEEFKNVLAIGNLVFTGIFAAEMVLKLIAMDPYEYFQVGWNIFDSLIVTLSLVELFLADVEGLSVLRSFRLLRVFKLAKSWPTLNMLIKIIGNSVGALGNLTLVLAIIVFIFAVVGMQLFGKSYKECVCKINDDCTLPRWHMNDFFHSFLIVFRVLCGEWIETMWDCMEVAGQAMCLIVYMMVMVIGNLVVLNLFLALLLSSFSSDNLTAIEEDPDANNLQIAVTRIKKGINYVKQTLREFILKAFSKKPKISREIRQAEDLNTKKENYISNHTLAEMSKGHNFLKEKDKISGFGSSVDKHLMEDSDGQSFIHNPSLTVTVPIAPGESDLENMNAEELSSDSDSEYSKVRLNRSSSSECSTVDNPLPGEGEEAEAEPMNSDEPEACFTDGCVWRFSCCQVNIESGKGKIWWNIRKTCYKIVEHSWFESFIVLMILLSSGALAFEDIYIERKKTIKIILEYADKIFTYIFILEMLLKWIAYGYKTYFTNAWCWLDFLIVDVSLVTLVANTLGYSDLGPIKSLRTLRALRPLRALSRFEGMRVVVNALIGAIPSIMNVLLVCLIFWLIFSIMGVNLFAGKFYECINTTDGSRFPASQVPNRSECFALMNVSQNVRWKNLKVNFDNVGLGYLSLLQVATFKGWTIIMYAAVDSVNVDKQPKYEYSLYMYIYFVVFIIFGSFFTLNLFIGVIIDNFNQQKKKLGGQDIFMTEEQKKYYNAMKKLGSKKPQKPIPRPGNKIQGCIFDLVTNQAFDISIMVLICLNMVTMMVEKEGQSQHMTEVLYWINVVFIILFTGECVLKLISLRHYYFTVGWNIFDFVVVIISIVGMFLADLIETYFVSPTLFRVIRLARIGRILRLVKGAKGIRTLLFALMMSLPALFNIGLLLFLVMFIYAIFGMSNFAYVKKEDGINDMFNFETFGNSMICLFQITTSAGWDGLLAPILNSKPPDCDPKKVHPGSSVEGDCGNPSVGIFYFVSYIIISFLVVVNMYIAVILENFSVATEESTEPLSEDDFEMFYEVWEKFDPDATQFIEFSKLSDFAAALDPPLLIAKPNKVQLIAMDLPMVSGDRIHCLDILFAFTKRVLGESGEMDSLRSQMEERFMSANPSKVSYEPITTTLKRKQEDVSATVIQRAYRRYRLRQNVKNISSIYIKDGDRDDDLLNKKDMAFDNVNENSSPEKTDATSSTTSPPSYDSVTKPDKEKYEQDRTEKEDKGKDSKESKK
Chain of hNav1.7 (Q15858 other isoform, or with tags, fused parts or gaps): as the sequence (Q15858 with tags, fused parts or gaps limits assumed) above

In general, IC50 refers to the point on the concentration scale where inhibition reaches its midpoint. With `C[C@H](Nc1cc(C(N)=O)nc(N2CCc3c(cccc3-c3ccc(C(F)(F)F)cc3)C2)n1)C(N)=O` [Compound 22, (S)-6-((1-amino-1-oxopropan-2-yl)amino)-2-(5-(4-(trifluoromethyl)phenyl)-3,4-dihydroisoquinolin-2(1H)-yl)pyrimidine-4-carboxamide], the IC50 in assay [1] was determined as 0.428 ± 0.069 µM. The Ki in assay [2] turned out to be 0.317 ± 0.079 µM.

`C[C@H](Nc1cc(C(N)=O)nc(N2CCc3c(cccc3-c3ccc(C(F)(F)F)cn3)C2)n1)C(N)=O` [Compound 23, (S)-6-((1-amino-1-oxopropan-2-yl)amino)-2-(5-(5-(trifluoromethyl)-pyridin-2-yl)-3,4-dihydroisoquinolin-2(1H)-yl)pyrimidine-4-carboxamide]: the IC50 in assay [1] was above 20 µM.

On to `C[C@H](Nc1cc(C(N)=O)nc(N2CCc3c(cccc3-c3ccccc3C(F)(F)F)C2)n1)C(N)=O` [Compound 24, (S)-6-((1-amino-1-oxopropan-2-yl)amino)-2-(5-(2-(trifluoromethyl)-phenyl)-3,4-dihydroisoquinolin-2(1H)-yl)pyrimidine-4-carboxamide], for which the IC50 in assay [1] was 2.35 ± 0.125 µM.

`NC(=O)c1cccc(N2CCc3c(cccc3-c3ccc(C(F)(F)F)cc3)C2)n1` [Compound 25, 6-(5-(4-(trifluoromethyl)phenyl)-3,4-dihydroisoquinolin-2(1H)-yl)picolinamide]: the IC50 in assay [1] came to 0.987 ± 0.072 µM.

Take `NC(=O)[C@@H](O)[C@H](O)c1cccc(N2CCc3c(cccc3-c3ccc(C(F)(F)F)cc3)C2)n1` [Compound 26, (2S,3R)-2,3-dihydroxy-3-(6-(5-(4-(trifluoromethyl)phenyl)-3,4-dihydroisoquinolin-2(1H)-yl)pyridin-2-yl)propanamide]: the IC50 in assay [1] worked out at 0.251 ± 0.017 µM. Besides, the Ki in assay [2] was determined as 0.051 ± 0.014 µM.

`C[C@H](Nc1cc(C(N)=O)nc(N2CCc3c(cccc3-c3cccc(C(F)(F)F)c3)C2)n1)C(N)=O` [Compound 27, (S)-6-((1-amino-1-oxopropan-2-yl)amino)-2-(5-(3-(trifluoromethyl)phenyl)-3,4-dihydroisoquinolin-2(1H)-yl)pyrimidine-4-carboxamide]: the IC50 in assay [1] was 1.52 ± 0.122 µM. The Ki in assay [2] turned out to be 0.24 ± 0.041 µM.

With `C[C@H](Nc1cc(C(N)=O)nc(N2CCc3c(cccc3C3=CCCCC3)C2)n1)C(N)=O` [Compound 28, (S)-6-((1-amino-1-oxopropan-2-yl)amino)-2-(5-(cyclohex-1-en-1-yl)-3,4-dihydroisoquinolin-2(1H)-yl)pyrimidine-4-carboxamide], the IC50 in assay [1] amounted to 2.84 ± 0.112 µM.

For the compound `O=S(=O)(Nc1ncns1)c1cccc(N2CCc3c(cccc3-c3ccc(C(F)(F)F)cc3)C2)n1` [Compound 29, N-(1,2,4-thiadiazol-5-yl)-6-(5-(4-(trifluoromethyl)phenyl)-3,4-dihydroisoquinolin-2(1H)-yl)pyridine-2-sulfonamide], in assay [1], the IC50 amounted to 0.291 ± 0.019 µM. The Ki in assay [2] amounted to 0.535 ± 0.145 µM.

Turning to `C[C@H](Nc1cc(C(N)=O)nc(N2CCc3c(cccc3C3CCCCC3)C2)n1)C(N)=O` [Compound 31, (S)-6-((1-amino-1-oxopropan-2-yl)amino)-2-(5-cyclohexyl-3,4-dihydroisoquinolin-2(1H)-yl)pyrimidine-4-carboxamide], the IC50 in assay [1] was 2.2 ± 0.898 µM.

As for `NC(=O)c1cc(N2CCc3c(cccc3-c3ccc(C(F)(F)F)cc3)C2)cc([C@H](O)CO)n1` [Compound 35, (S)-6-(1,2-dihydroxyethyl)-4-(5-(4-(trifluoromethyl)phenyl)-3,4-dihydroisoquinolin-2(1H)-yl)picolinamide], in assay [1], the IC50 is 0.502 ± 0.031 µM. Besides, the Ki in assay [2] was determined as 0.232 ± 0.065 µM.

As for `NC(=O)c1cc(N2CCc3c(cccc3-c3ccc(C(F)(F)F)cc3)C2)cc([C@@H](O)CO)n1` [Compound 36, (R)-6-(1,2-dihydroxyethyl)-4-(5-(4-(trifluoromethyl)phenyl)-3,4-dihydro-isoquinolin-2(1H)-yl)picolinamide], in assay [1], the IC50 was determined as 1.54 ± 0.229 µM. Besides, the Ki in assay [2] came out at 0.257 ± 0.046 µM.
